IC50 data for 20 compounds are collected here from patent US11919902B2, “Aryl-bipyridine amine derivatives as phosphatidylinositol phosphate kinase inhibitors” (HiberCell, Inc., priority 2017, dated 2024).

One assay has as its target T1, GST tagged PIP4KtypeIIA (Homo sapiens, UniProt P48426).
T1 construct: made in house; host or cells: E. coli
T1 sequence (P48426 1-406): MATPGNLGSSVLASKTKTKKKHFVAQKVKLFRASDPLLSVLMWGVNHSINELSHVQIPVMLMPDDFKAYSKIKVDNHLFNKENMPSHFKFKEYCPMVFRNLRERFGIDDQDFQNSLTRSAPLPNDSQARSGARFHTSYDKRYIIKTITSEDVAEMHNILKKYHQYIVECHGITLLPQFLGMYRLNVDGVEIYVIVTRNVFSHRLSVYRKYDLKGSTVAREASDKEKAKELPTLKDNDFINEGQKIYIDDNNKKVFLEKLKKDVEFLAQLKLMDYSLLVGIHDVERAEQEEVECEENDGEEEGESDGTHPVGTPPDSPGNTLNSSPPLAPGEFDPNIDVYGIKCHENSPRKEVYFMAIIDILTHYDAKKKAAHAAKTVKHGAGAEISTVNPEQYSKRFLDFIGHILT
In words: ADP-glo kinase assay PIP4K 2A (PIP4KtypeIIA inhibition assay). The settings on record: Table 3; compounds listed under IC50 range headings; 10 uM ATP, 0.5 nM PIP4KIIA. The assay is classed as biochemical. The method in brief: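 Read-out was ADP-Glo luminescence converted to μM ADP, with IC50 plotted as % of no-inhibitor activity against log concentration. Reactions contained 10 μM ATP, 80 μM PI5P with DOPE carrier, and 0.5 nM GST-tagged PIP4KIIA (E. coli-expressed) in pH 7.3 HEPES/MgCl2 buffer with 5% DMSO. Enzyme and compound (≤4.8 μM) were preincubated 1 h at 27 °C before the 1 h reaction.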

Another assay has as its target T2, GST tagged PIP4KtypeIIB (Homo sapiens, UniProt P78356).
T2 construct: made in house; host or cells: E. coli
T2 sequence (P78356 1-416): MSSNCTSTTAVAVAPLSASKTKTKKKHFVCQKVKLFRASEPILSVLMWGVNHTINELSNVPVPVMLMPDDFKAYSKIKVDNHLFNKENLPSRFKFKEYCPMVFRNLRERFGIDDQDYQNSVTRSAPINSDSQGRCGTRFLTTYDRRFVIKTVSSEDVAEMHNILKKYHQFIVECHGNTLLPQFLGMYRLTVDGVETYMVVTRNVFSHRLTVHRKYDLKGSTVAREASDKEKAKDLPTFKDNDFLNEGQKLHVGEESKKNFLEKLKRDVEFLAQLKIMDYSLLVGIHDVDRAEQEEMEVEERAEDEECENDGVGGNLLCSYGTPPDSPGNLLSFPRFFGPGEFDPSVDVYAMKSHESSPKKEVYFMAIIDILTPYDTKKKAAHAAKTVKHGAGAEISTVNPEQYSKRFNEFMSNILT
In words: Trans-FI P kinase assay PIP4K2B (PIP4KtypeIIB inhibition assay). The class given is biochemical. Conditions: Table 4; compounds listed under IC50 range headings; 100 uM GTP, 5 nM PIP4KIIB; read-out: Trans-FI P kinase assays: PIP4K2B IC50. A digest of the protocol:
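Transcreener FI fluorescence, converted to GDP by calibration, tracked product from 5 nM E. coli-expressed GST-PIP4KIIB acting on 80 uM PI5P (DOPE carrier) with 100 uM GTP. Compound (top 4.8 uM final, 5% DMSO) was preincubated 1 h at 27 C before the 2 h reaction; IC50 fitted from residual activity.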

For assay [1], the target named is T3, PIP4K2A (full length protein, SignalChem) (Homo sapiens, UniProt P48426).
T3 construct: 4 nM PIP4K2A (full length protein, SignalChem); purchased SignalChem
T3 sequence (P48426 1-406): T1 sequence (P48426 1-406)
In words: Kinase Assay PIP4K2 A (Sprint); ADP-Glo biochemical assay. The settings on record: Table 2; compounds listed under IC50 range headings. The method in brief:
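ADP-Glo luminescence detected ADP after a 1 h RT reaction started with 60 μM ATP solution. Before that, full-length PIP4K2A (4 nM in mix) with 100 μM PI(5)P diC8 was pre-incubated 15 min with compounds in MOPS buffer pH 7.2, 25 mM MgCl2, 0.005% Tween 20. IC50 derived from % inhibition relative to DMSO over 10 three-fold concentrations.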

For orientation: IC50 means the concentration needed to halve the response being measured.

Take `CS(=O)(=O)N1Cc2nccc(-c3cncc(-c4ccc(N5CCCC5=O)cc4)c3)c2C1` [Example 64, 1-(4-(5-(6-(methylsulfonyl)-6,7-dihydro-5H-pyrrolo[3,4-b]pyridin-4-yl)pyridin-3-yl)phenyl)pyrrolidin-2-one]: the figures for the IC50 (against GST tagged PIP4KtypeIIA; on GST tagged PIP4KtypeIIB; in assay [1]) were over 5000 nM, over 5000 nM and 100 to 1000 nM, respectively.

On to `Cc1nc(-c2cncc(-c3ccc(N4CCCC4=O)cc3)c2)c2cn[nH]c2n1` [Example 225, 1-(4-(5-(6-methyl-2H-pyrazolo[3,4-d]pyrimidin-4-yl)pyridin-3-yl)phenyl)pyrrolidin-2-one], for which the IC50 (on GST tagged PIP4KtypeIIA; at GST tagged PIP4KtypeIIB; in assay [1]) was 100 to 1000 nM in each case.

In the case of `CNC(=O)c1cc2c(-c3cncc(-c4ccc(N5CCCC5=O)cc4)c3C)ccnc2o1` [Example 174, N-methyl-4-(4-methyl-5-(4-(2-oxopyrrolidin-1-yl)phenyl)pyridin-3-yl)furo[2,3-b]pyridine-2-carboxamide], the IC50 against GST tagged PIP4KtypeIIA was in the range of 100 to 1000 nM; on GST tagged PIP4KtypeIIB, 100 to 1000 nM; in assay [1], 5 to 100 nM.

Turning to `Nc1ncc(-c2ccnc3[nH]c(C(=O)NCC(F)(F)F)cc23)cc1-c1ccc(C(=O)NCC(F)(F)F)cn1` [Example 139, 4-(2′-amino-5-((2,2,2-trifluoroethyl)carbamoyl)-[2,3′-bipyridin]-5′-yl)-N-(2,2,2-trifluoroethyl)-1H-pyrrolo[2,3-b]pyridine-2-carboxamide], the results for the IC50 (at GST tagged PIP4KtypeIIA; at GST tagged PIP4KtypeIIB; in assay [1]) were over 5000 nM, 2500 to 5000 nM and under 5000 nM, respectively.

With `CC(O)c1cnc2c(c1)c(-c1cncc(-c3ccc(N4CCCC4=O)cc3)c1)cn2C` (stereo not drawn) [Example 62, 1-(4-(5-(5-(1-hydroxyethyl)-1-methyl-1H-pyrrolo[2,3-b]pyridin-3-yl)pyridin-3-yl)phenyl)pyrrolidin-2-one], the IC50 against GST tagged PIP4KtypeIIA fell in the range of 100 to 1000 nM; at GST tagged PIP4KtypeIIB, 1000 to 2500 nM; in assay [1], 5 to 100 nM.

`O=C1CCCN1c1ccc(-c2cncc(-n3cnc4ccccc43)c2)cc1` [Example 177, 1-(4-(5-(1H-benzo[d]imidazol-1-yl)pyridin-3-yl)phenyl)pyrrolidin-2-one]: the IC50 (on GST tagged PIP4KtypeIIA; on GST tagged PIP4KtypeIIB; in assay [1]) was 100 to 1000 nM throughout.

For `O=C1CCCN1c1ccc(-c2cncc(-c3c[nH]c4ncc(Cl)cc34)c2)cc1` [Example 27, 1-(4-(5-(5-chloro-1H-pyrrolo[2,3-b]pyridin-3-yl)pyridin-3-yl)phenyl)pyrrolidin-2-one], the IC50 against GST tagged PIP4KtypeIIA is 100 to 1000 nM; on GST tagged PIP4KtypeIIB, 100 to 1000 nM; in assay [1], 5 to 100 nM.

On to `CN(C)C(=O)c1ccc(-c2cc(-c3ccnc4[nH]c(=O)[nH]c34)cnc2N)nc1` [Example 113, 2′-amino-N,N-dimethyl-5′-(2-oxo-2,3-dihydro-1H-imidazo[4,5-b]pyridin-7-yl)-[2,3′-bipyridine]-5-carboxamide], for which the values for the IC50 (on GST tagged PIP4KtypeIIA; on GST tagged PIP4KtypeIIB; in assay [1]) were 100 to 1000 nM, 100 to 1000 nM and 5 to 100 nM, respectively.

With `CN(C)C(=O)c1ccc(-c2cc(-c3ccnc4ccccc34)cnc2N)nc1` [Example 20, 2′-amino-N,N-dimethyl-5′-(quinolin-4-yl)-[2,3′-bipyridine]-5-carboxamide], the IC50 against GST tagged PIP4KtypeIIA is 1000 to 2500 nM; on GST tagged PIP4KtypeIIB, 100 to 1000 nM; in assay [1], 100 to 1000 nM.

Turning to `O=C1CCCN1c1ccc(-c2cncc(-c3c[nH]c4ncccc34)c2)cc1` [Example 28, 1-(4-(5-(1H-pyrrolo[2,3-b]pyridin-3-yl)pyridin-3-yl)phenyl)pyrrolidin-2-one], the IC50 against GST tagged PIP4KtypeIIA fell in the range of 100 to 1000 nM; at GST tagged PIP4KtypeIIB it was 100 to 1000 nM; in assay [1], 5 to 100 nM.

As for `CN(C)C(=O)c1cnc2c(c1)c(-c1cncc(-c3ccc(N4CCCC4=O)cc3)c1)nn2C` [Example 231, N,N,1-trimethyl-3-(5-(4-(2-oxopyrrolidin-1-yl)phenyl)pyridin-3-yl)-1H-pyrazolo[3,4-b]pyridine-5-carboxamide], the IC50 at GST tagged PIP4KtypeIIA lay in the range of 100 to 1000 nM; at GST tagged PIP4KtypeIIB, 1000 to 2500 nM; in assay [1], 100 to 1000 nM.

As for `CN(C)C(=O)c1ccc(-c2cc(-c3ccnc4[nH]c(C(=O)NCC(F)(F)F)cc34)cnc2N)nc1` [Example 138, 4-(2′-amino-5-(dimethylcarbamoyl)-[2,3′-bipyridin]-5′-yl)-N-(2,2,2-trifluoroethyl)-1H-pyrrolo[2,3-b]pyridine-2-carboxamide], the IC50 at GST tagged PIP4KtypeIIA is 100 to 1000 nM; on GST tagged PIP4KtypeIIB, 10 to 100 nM; in assay [1] it was 100 to 1000 nM.

In the case of `COC(=O)c1cc2c(-c3cncc(-c4ccc(N5CCCC5=O)cc4)c3)ccnc2[nH]1` [Example 302, methyl 4-(5-(4-(2-oxopyrrolidin-1-yl)phenyl)pyridin-3-yl)-1H-pyrrolo[2,3-b]pyridine-2-carboxylate], the IC50 on GST tagged PIP4KtypeIIA lay in the range of 10 to 100 nM; at GST tagged PIP4KtypeIIB, 10 to 100 nM; in assay [1] it was 5 to 100 nM.

As to `N#Cc1[nH]c2ncccc2c1-c1cncc(-c2ccc(N3CCCC3=O)cc2)c1` [Example 51, 3-(5-(4-(2-oxopyrrolidin-1-yl)phenyl)pyridin-3-yl)-1H-pyrrolo[2,3-b]pyridine-2-carbonitrile], the IC50 is 100 to 1000 nM against GST tagged PIP4KtypeIIA, 10 to 100 nM on GST tagged PIP4KtypeIIB and 5 to 100 nM in assay [1].

On to `CN(C)C(=O)c1ccc(-c2cc(-c3ccnc(CNC(=O)c4cccc(NC(=O)OC(C)(C)C)c4)c3)cnc2N)nc1` [Example 190, tert-butyl (3-(((2′-amino-5-(dimethylcarbamoyl)-[2,3′:5′,4″-terpyridin]-2″-yl)methyl)carbamoyl)phenyl)carbamate], for which the IC50 against GST tagged PIP4KtypeIIA is over 5000 nM; at GST tagged PIP4KtypeIIB it was over 5000 nM; in assay [1], 2500 to 5000 nM.

For `CN(C)C(=O)c1ccc(-c2cc(-c3ccnc4[nH]c(C(=O)NCc5ccncc5)cc34)cnc2N)nc1` [Example 135, 4-(2′-amino-5-(dimethylcarbamoyl)-[2,3′-bipyridin]-5′-yl)-N-(pyridin-4-ylmethyl)-1H-pyrrolo[2,3-b]pyridine-2-carboxamide], the IC50 against GST tagged PIP4KtypeIIA was 100 to 1000 nM; at GST tagged PIP4KtypeIIB it was 10 to 100 nM; in assay [1], 5 to 100 nM.

For the compound `CN(C)C(=O)c1ccc(-c2cc(-c3ccnc(CNC(=O)CCc4cccc(N)c4)c3)cnc2N)nc1` [Example 194, 2′-amino-2″-((3-(3-aminophenyl)propanamido)methyl)-N,N-dimethyl-[2,3′:5′,4″-terpyridine]-5-carboxamide], the IC50 against GST tagged PIP4KtypeIIA is over 5000 nM; on GST tagged PIP4KtypeIIB, 2500 to 5000 nM; in assay [1] it was 1000 to 2500 nM.

As for `COc1ncc(-c2cncc(-c3ccc(N4CCCC4=O)cc3)c2)c2c[nH]nc12` [Example 270, 1-(4-(5-(7-methoxy-2H-pyrazolo[3,4-c]pyridin-4-yl)pyridin-3-yl)phenyl)pyrrolidin-2-one], the IC50 on GST tagged PIP4KtypeIIA lay in the range of 100 to 1000 nM; on GST tagged PIP4KtypeIIB it was 100 to 1000 nM; in assay [1], 5 to 100 nM.

Regarding `CN(C)C(=O)c1ccc(-c2cncc(-c3cnc4c(ccn4C)c3)c2)cc1` [Example 6, N,N-dimethyl-4-(5-(1-methyl-1H-pyrrolo[2,3-b]pyridin-5-yl)pyridin-3-yl)benzamide], the figures for the IC50 (on GST tagged PIP4KtypeIIA; on GST tagged PIP4KtypeIIB; in assay [1]) were over 5000 nM, over 5000 nM and 1000 to 2500 nM, respectively.

With `O=C1CCCN1c1ccc(-c2cncc(-c3c[nH]c4ncncc34)c2)cc1` [Example 30, 1-(4-(5-(7H-pyrrolo[2,3-d]pyrimidin-5-yl)pyridin-3-yl)phenyl)pyrrolidin-2-one], the IC50 at GST tagged PIP4KtypeIIA lay within 100 to 1000 nM; at GST tagged PIP4KtypeIIB, 100 to 1000 nM; in assay [1], 5 to 100 nM.
